{"source": "the kinase profiling compilation of Christmann-Franck et al. (2016)", "assay_in_all_cases": "radiometric filter-binding kinase assay, Kinaseprofiler", "key": {"FES (human)": {"target": "FES (human) (UniProt P07332)", "sequence (P07332 whole entry, looked up)": "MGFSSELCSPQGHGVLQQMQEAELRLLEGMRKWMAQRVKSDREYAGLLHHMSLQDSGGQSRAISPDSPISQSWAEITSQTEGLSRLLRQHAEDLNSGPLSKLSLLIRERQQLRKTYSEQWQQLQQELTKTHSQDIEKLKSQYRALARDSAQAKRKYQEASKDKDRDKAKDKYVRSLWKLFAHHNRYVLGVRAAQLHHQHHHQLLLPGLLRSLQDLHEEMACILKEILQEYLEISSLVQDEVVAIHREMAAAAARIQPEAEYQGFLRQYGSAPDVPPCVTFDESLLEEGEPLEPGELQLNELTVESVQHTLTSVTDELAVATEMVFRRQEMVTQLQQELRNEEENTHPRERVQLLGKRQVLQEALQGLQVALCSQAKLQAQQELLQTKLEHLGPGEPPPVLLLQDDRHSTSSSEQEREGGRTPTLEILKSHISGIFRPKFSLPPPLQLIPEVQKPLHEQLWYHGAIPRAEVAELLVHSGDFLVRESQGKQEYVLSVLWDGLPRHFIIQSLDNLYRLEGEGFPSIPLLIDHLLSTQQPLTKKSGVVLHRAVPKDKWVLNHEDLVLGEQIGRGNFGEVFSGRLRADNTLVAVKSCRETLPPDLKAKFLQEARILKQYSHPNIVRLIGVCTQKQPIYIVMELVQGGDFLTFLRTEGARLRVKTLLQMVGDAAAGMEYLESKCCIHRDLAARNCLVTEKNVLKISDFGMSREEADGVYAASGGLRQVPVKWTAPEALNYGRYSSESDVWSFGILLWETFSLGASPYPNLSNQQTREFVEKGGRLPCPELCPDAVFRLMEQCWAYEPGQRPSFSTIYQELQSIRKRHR"}, "FGFR3 (human)": {"target": "FGFR3 (human) (UniProt P22607)", "sequence (P22607 whole entry, looked up)": "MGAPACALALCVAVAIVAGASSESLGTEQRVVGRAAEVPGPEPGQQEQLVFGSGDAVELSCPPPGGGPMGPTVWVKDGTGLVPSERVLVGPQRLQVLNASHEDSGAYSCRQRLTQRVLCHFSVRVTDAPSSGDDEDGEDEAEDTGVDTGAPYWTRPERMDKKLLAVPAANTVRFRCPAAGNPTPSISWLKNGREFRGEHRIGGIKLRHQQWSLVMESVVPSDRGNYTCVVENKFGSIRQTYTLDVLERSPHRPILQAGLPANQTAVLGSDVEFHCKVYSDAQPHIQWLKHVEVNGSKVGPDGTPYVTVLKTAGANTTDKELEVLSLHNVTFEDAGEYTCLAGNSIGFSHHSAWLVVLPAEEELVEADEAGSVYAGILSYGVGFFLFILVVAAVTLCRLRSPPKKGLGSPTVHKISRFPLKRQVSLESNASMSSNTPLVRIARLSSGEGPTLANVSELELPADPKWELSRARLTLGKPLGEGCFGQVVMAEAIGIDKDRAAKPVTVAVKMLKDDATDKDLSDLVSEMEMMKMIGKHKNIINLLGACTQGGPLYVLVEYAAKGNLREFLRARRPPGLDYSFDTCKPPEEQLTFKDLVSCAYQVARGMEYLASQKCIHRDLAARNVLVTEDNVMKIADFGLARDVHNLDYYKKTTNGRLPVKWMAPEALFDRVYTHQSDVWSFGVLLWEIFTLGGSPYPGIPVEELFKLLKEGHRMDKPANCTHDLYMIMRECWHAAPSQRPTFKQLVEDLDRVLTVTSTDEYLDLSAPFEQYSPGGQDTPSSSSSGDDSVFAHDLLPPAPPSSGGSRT"}, "FLT4 (human)": {"target": "FLT4 (human) (UniProt P35916)", "sequence (P35916 whole entry, looked up)": "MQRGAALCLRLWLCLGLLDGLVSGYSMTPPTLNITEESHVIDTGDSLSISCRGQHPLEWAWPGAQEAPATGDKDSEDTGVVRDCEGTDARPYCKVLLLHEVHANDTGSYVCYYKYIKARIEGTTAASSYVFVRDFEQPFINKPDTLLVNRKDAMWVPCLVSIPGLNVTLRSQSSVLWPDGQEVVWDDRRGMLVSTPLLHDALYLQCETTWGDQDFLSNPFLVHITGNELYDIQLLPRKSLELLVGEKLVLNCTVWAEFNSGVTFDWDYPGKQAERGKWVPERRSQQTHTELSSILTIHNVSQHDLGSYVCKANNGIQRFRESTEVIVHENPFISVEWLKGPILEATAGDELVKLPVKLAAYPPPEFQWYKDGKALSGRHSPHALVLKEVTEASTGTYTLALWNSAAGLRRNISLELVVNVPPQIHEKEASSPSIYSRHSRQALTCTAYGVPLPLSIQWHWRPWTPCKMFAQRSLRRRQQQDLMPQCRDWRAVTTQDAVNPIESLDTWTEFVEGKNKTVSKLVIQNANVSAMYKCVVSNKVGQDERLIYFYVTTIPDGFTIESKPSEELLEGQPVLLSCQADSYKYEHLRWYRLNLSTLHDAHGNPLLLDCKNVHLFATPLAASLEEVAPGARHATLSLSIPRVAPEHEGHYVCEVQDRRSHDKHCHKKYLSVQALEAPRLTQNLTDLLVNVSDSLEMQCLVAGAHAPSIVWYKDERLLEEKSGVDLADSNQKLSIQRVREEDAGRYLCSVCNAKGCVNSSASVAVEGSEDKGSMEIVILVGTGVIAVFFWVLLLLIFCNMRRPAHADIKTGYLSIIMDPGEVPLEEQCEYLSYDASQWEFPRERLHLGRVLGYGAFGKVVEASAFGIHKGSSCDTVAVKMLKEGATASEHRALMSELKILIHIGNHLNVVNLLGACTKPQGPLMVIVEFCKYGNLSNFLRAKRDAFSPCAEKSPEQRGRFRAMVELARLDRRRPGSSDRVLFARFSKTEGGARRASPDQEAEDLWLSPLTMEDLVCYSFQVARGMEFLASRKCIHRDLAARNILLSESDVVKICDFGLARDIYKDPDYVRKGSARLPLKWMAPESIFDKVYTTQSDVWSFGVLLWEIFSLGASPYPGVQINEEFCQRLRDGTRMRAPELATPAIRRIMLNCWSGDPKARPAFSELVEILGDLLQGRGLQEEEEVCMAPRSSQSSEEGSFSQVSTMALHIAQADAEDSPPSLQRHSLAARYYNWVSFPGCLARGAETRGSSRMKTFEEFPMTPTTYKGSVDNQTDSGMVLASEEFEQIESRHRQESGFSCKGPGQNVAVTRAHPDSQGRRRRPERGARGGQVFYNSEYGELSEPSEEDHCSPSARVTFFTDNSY"}, "MERTK (human)": {"target": "MERTK (human) (UniProt Q12866)", "sequence (Q12866 whole entry, looked up)": "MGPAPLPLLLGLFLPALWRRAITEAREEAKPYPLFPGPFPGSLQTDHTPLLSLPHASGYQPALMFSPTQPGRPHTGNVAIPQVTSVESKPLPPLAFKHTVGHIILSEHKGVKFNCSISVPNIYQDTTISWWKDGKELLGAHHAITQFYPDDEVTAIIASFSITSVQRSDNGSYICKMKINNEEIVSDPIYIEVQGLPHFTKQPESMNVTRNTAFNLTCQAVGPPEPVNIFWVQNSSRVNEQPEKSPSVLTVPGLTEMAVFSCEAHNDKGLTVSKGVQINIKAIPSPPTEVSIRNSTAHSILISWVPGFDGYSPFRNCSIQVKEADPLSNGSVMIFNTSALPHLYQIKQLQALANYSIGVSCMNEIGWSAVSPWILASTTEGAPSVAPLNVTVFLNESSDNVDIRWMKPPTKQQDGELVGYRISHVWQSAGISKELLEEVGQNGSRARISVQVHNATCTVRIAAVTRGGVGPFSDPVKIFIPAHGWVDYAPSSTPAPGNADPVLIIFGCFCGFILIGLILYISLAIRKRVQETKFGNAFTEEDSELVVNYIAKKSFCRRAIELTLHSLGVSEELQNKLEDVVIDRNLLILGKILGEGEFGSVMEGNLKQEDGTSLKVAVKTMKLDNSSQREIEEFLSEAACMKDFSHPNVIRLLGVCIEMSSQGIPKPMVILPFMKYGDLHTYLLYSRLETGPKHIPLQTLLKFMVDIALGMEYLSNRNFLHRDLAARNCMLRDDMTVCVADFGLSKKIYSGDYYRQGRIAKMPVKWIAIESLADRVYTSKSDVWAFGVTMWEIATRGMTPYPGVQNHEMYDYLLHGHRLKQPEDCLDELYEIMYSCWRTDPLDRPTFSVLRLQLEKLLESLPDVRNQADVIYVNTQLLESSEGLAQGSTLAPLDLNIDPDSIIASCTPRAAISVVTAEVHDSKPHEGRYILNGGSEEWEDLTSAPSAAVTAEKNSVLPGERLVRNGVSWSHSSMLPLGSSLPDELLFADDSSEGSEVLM"}}, "note": "pIC50: −log10 of the molar value.", "data": [{"molecule": "Cn1cc(-c2cnc3ccc4ccc(CS(=O)(=O)NCc5ccccn5)cc4c(=O)c3c2)cn1", "values": [{"measurement": "pIC50", "setting": "FES (human)", "value": "< 5.00"}, {"measurement": "pIC50", "setting": "FGFR3 (human)", "value": 6.00}, {"measurement": "pIC50", "setting": "FLT4 (human)", "value": 6.04}, {"measurement": "pIC50", "setting": "MERTK (human)", "value": 6.06}]}]}
